{
  "source": "patent US20200095241A1",
  "about": "“SUBSTITUTED 1,2,4-THIADIAZOLYLPYRROLONES AND 1,2,4-THIADIAZOLYLHYDANTOINS AND SALTS THEREOF AND USE THEREOF AS HERBICIDES” (Bayer CropScience Aktiengesellschaft, priority 2016, published 2020)",
  "key": {"photosystem II (PS II)": {"target": "T1, photosystem II (PS II) (Spinacia oleracea, UniProt P69560)", "T1 construct": "the chloroplasts were osmotically ruptured and the thylakoid membranes were then obtained by centrifugation; from tissue; host or cells: fresh spinach leaves; thylakoid membranes isolated from chloroplasts", "assay": "Measurement of the PS II activity in thylakoid membranes (DCPIP reduction)", "type": "biochemical", "settings": "100 μM test compound, spinach thylakoid membranes, DCPIP 120 μM, 10 min at 22° C. with exposure to light; read-out: Effect (inhibition of PS II activity)", "summary_of_the_method": "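Thylakoid membranes from spinach leaves in 50 mM phosphate buffer pH 6.8, 10 mM KCl; light-driven reduction of 120 μM DCPIP followed at 595 nm for 10 min at 22 °C. Compounds tested at 100 μM stock in DMSO (2.5% final DMSO), with activity binned by % inhibition classes.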"}, "Alopecurus myosuroides [1]": {"system": "Alopecurus myosuroides", "assay": "Post-emergence herbicidal action", "type": "in vivo", "settings": "1280 g/ha, about 3 weeks after treatment", "description": "(§1) Seeds of monocotyledonous and dicotyledonous weeds and crop plants were placed in sandy loam in plastic or wood-fiber pots, covered with soil and cultivated in a greenhouse under controlled growth conditions. 2 to 3 weeks after sowing, the test plants were treated at the one-leaf stage. The compounds of the invention, formulated in the form of wettable powders (WP) or as emulsion concentrates (EC), were then sprayed onto the green parts of the plants as aqueous suspension or emulsion with addition of 0.5% additive at a water application rate of 600 l/ha (converted). After the test plants had been kept in the greenhouse under optimum growth conditions for about 3 weeks, the activity of the preparations was rated visually in comparison to untreated controls. For example, 100% activity=the plants have died, 0% activity=like control plants. Tables A1 to A12 below show the effects of selected compounds of the general formula (I) according to Tables I.1 to I.44 on various harmful plants and an application rate corresponding to 1280 g/ha or 320 g/ha, which were obtained by the experimental procedure mentioned above."}, "Viola tricolor [2]": {"system": "Viola tricolor", "assay": "Post-emergence herbicidal action", "type": "in vivo", "settings": "504 h, about 3 weeks after treatment, read-out: Viola tricolor, herbicidal activity rated visually", "description": "as §1"}, "Pharbitis purpurea": {"system": "Pharbitis purpurea", "assay": "Post-emergence herbicidal action", "type": "in vivo", "settings": "about 3 weeks after treatment", "description": "as §1"}, "Hordeum murinum [3]": {"system": "Hordeum murinum", "assay": "Post-emergence herbicidal action", "type": "in vivo", "settings": "1280 g/ha, about 3 weeks after treatment", "description": "as §1"}, "Setaria viridis [4]": {"system": "Setaria viridis", "assay": "Post-emergence herbicidal action", "type": "in vivo", "settings": "Setaria viridis, 504 h, about 3 weeks after treatment, read-out: Setaria viridis, herbicidal activity rated visually", "description": "as §1"}, "Veronica persica": {"system": "Veronica persica", "assay": "Post-emergence herbicidal action", "type": "in vivo", "settings": "1280 g/ha, about 3 weeks after treatment", "description": "as §1"}, "Abutilon theophrasti": {"system": "Abutilon theophrasti", "assay": "Post-emergence herbicidal action", "type": "in vivo", "settings": "Abutilon theophrasti, 504 h, about 3 weeks after treatment, read-out: Abutilon theophrasti, herbicidal activity rated visually", "description": "as §1"}, "Echinochloa crus-galli [5]": {"system": "Echinochloa crus-galli", "assay": "Post-emergence herbicidal action", "type": "in vivo", "settings": "1280 g/ha, about 3 weeks after treatment", "description": "as §1"}, "Matricaria inodora [6]": {"system": "Matricaria inodora", "assay": "Post-emergence herbicidal action", "type": "in vivo", "settings": "about 3 weeks after treatment", "description": "as §1"}, "Polygonum convolvulus [7]": {"system": "Polygonum convolvulus", "assay": "Post-emergence herbicidal action", "type": "in vivo", "settings": "1280 g/ha, about 3 weeks after treatment", "description": "as §1"}, "Stellaria media [8]": {"system": "Stellaria media", "assay": "Post-emergence herbicidal action", "type": "in vivo", "settings": "Stellaria media, 504 h, about 3 weeks after treatment, read-out: Stellaria media, herbicidal activity rated visually", "description": "as §1"}, "Amaranthus retroflexus": {"system": "Amaranthus retroflexus", "assay": "Post-emergence herbicidal action", "type": "in vivo", "settings": "about 3 weeks after treatment", "description": "as §1"}, "Alopecurus myosuroides [9]": {"system": "Alopecurus myosuroides", "assay": "Pre-emergence herbicidal action", "type": "in vivo", "settings": "after about 3 weeks", "from_the_text": "(§2) Seeds of monocotyledonous and dicotyledonous weed plants and crop plants were placed in plastic or organic planting pots and covered with soil. The compounds of the invention, formulated in the form of wettable powders (WP) or as emulsion concentrates (EC), were then applied onto the surface of the covering soil as aqueous suspension or emulsion with addition of 0.5% additive at a water application rate of 600 l/ha (converted). After the treatment, the pots were placed in a greenhouse and kept under good growth conditions for the test plants. After about 3 weeks, the effect of the preparations was scored visually in comparison with untreated controls as percentages. For example, 100% activity=the plants have died, 0% activity=like control plants. Tables B1 to B15 below show the effects of selected compounds of the general formula (I) according to Tables I.1 to I.44 on various harmful plants and an application rate corresponding to 1280 g/ha or 320 g/ha, which were obtained by the experimental procedure mentioned above."}, "Viola tricolor [10]": {"system": "Viola tricolor", "assay": "Pre-emergence herbicidal action", "type": "in vivo", "settings": "Viola tricolor, 504 h, after about 3 weeks, read-out: Viola tricolor, herbicidal effect scored visually", "from_the_text": "as §2"}, "Cyperus esculentus": {"system": "Cyperus esculentus", "assay": "Pre-emergence herbicidal action", "type": "in vivo", "settings": "1280 g/ha, after about 3 weeks", "from_the_text": "as §2"}, "Setaria viridis [11]": {"system": "Setaria viridis", "assay": "Pre-emergence herbicidal action", "type": "in vivo", "settings": "Setaria viridis, 504 h, after about 3 weeks, read-out: Setaria viridis, herbicidal effect scored visually", "from_the_text": "as §2"}, "Echinochloa crus-galli [12]": {"system": "Echinochloa crus-galli", "assay": "Pre-emergence herbicidal action", "type": "in vivo", "settings": "1280 g/ha, after about 3 weeks", "from_the_text": "as §2"}, "Matricaria inodora [13]": {"system": "Matricaria inodora", "assay": "Pre-emergence herbicidal action", "type": "in vivo", "settings": "Tripleurospermum inodorum, 504 h, after about 3 weeks, read-out: Matricaria inodora, herbicidal effect scored visually", "from_the_text": "as §2"}, "Polygonum convolvulus [14]": {"system": "Polygonum convolvulus", "assay": "Pre-emergence herbicidal action", "type": "in vivo", "settings": "after about 3 weeks", "from_the_text": "as §2"}, "Stellaria media [15]": {"system": "Stellaria media", "assay": "Pre-emergence herbicidal action", "type": "in vivo", "settings": "Stellaria media, 504 h, after about 3 weeks, read-out: Stellaria media, herbicidal effect scored visually", "from_the_text": "as §2"}, "Hordeum murinum [16]": {"system": "Hordeum murinum", "assay": "Pre-emergence herbicidal action", "type": "in vivo", "settings": "320 g/ha, after about 3 weeks", "from_the_text": "as §2"}},
  "data": [
    {"smiles": "CC1=C(C)C(O)N(c2nc(C(C)C)ns2)C1=O", "note": "(stereo not drawn) [I.2-5, 3,4-Dimethyl-5-hydroxy-1-(3-(isopropyl)-1,2,4-thiadiazol-5-yl)-1,5-dihydro-2H-pyrrol-2-one]", "values": [
      {"measurement": "inhibition at 100 µM (stock)", "setting": "photosystem II (PS II)", "value": "> 90", "unit": "%"},
      {"measurement": "Alopecurus myosuroides, herbicidal activity rated visually", "setting": "Alopecurus myosuroides [1]", "value": 80, "unit": "%"},
      {"measurement": "pest or weed control at 1280 g/ha", "setting": "Viola tricolor [2]; 1280 g/ha", "value": 100, "unit": "%"},
      {"measurement": "Pharbitis purpurea, herbicidal activity rated visually", "setting": "Pharbitis purpurea; 1280 g/ha", "value": 100, "unit": "%"},
      {"measurement": "Hordeum murinum, herbicidal activity rated visually", "setting": "Hordeum murinum [3]", "value": 100, "unit": "%"},
      {"measurement": "pest or weed control at 1280 g/ha", "setting": "Setaria viridis [4]; 1280 g/ha", "value": 100, "unit": "%"},
      {"measurement": "Veronica persica, herbicidal activity rated visually", "setting": "Veronica persica", "value": 90, "unit": "%"},
      {"measurement": "pest or weed control at 1280 g/ha", "setting": "Abutilon theophrasti; 1280 g/ha", "value": 100, "unit": "%"},
      {"measurement": "Echinochloa crus-galli, herbicidal activity rated visually", "setting": "Echinochloa crus-galli [5]", "value": 90, "unit": "%"},
      {"measurement": "Matricaria inodora, herbicidal activity rated visually", "setting": "Matricaria inodora [6]; 1280 g/ha", "value": 100, "unit": "%"},
      {"measurement": "Polygonum convolvulus, herbicidal activity rated visually", "setting": "Polygonum convolvulus [7]", "value": 80, "unit": "%"},
      {"measurement": "pest or weed control at 1280 g/ha", "setting": "Stellaria media [8]; 1280 g/ha", "value": 100, "unit": "%"},
      {"measurement": "Amaranthus retroflexus, herbicidal activity rated visually", "setting": "Amaranthus retroflexus; 1280 g/ha", "value": 100, "unit": "%"},
      {"measurement": "Alopecurus myosuroides, herbicidal effect scored visually", "setting": "Alopecurus myosuroides [9]; 1280 g/ha", "value": 80, "unit": "%"},
      {"measurement": "pest or weed control at 1280 g/ha", "setting": "Viola tricolor [10]; 1280 g/ha", "value": 100, "unit": "%"},
      {"measurement": "Cyperus esculentus, herbicidal effect scored visually", "setting": "Cyperus esculentus", "value": 90, "unit": "%"},
      {"measurement": "pest or weed control at 1280 g/ha", "setting": "Setaria viridis [11]; 1280 g/ha", "value": 100, "unit": "%"},
      {"measurement": "Echinochloa crus-galli, herbicidal effect scored visually", "setting": "Echinochloa crus-galli [12]", "value": 80, "unit": "%"},
      {"measurement": "pest or weed control at 1280 g/ha", "setting": "Matricaria inodora [13]; 1280 g/ha", "value": 100, "unit": "%"},
      {"measurement": "Polygonum convolvulus, herbicidal effect scored visually", "setting": "Polygonum convolvulus [14]; 1280 g/ha", "value": 100, "unit": "%"},
      {"measurement": "pest or weed control at 1280 g/ha", "setting": "Stellaria media [15]; 1280 g/ha", "value": 100, "unit": "%"}
    ]},
    {"smiles": "CC1=C(C)C(O)N(c2nc(C3CC3)ns2)C1=O", "note": "(stereo not drawn) [I.2-11, 3,4-Dimethyl-5-hydroxy-1-(3-cyclopropyl-1,2,4-thiadiazol-5-yl)-1,5-dihydro-2H-pyrrol-2-one]", "values": [
      {"measurement": "inhibition at 100 µM (stock)", "setting": "photosystem II (PS II)", "value": "> 90", "unit": "%"},
      {"measurement": "pest or weed control at 320 g/ha", "setting": "Viola tricolor [2]; 320 g/ha", "value": 100, "unit": "%"},
      {"measurement": "Pharbitis purpurea, herbicidal activity rated visually", "setting": "Pharbitis purpurea; 320 g/ha", "value": 100, "unit": "%"},
      {"measurement": "pest or weed control at 320 g/ha", "setting": "Setaria viridis [4]; 320 g/ha", "value": 100, "unit": "%"},
      {"measurement": "pest or weed control at 320 g/ha", "setting": "Abutilon theophrasti; 320 g/ha", "value": 100, "unit": "%"},
      {"measurement": "Matricaria inodora, herbicidal activity rated visually", "setting": "Matricaria inodora [6]; 320 g/ha", "value": 100, "unit": "%"},
      {"measurement": "pest or weed control at 320 g/ha", "setting": "Stellaria media [8]; 320 g/ha", "value": 100, "unit": "%"},
      {"measurement": "Amaranthus retroflexus, herbicidal activity rated visually", "setting": "Amaranthus retroflexus; 320 g/ha", "value": 100, "unit": "%"},
      {"measurement": "Alopecurus myosuroides, herbicidal effect scored visually", "setting": "Alopecurus myosuroides [9]; 320 g/ha", "value": 90, "unit": "%"},
      {"measurement": "pest or weed control at 320 g/ha", "setting": "Viola tricolor [10]; 320 g/ha", "value": 100, "unit": "%"},
      {"measurement": "Hordeum murinum, herbicidal effect scored visually", "setting": "Hordeum murinum [16]", "value": 100, "unit": "%"},
      {"measurement": "pest or weed control at 320 g/ha", "setting": "Setaria viridis [11]; 320 g/ha", "value": 100, "unit": "%"},
      {"measurement": "pest or weed control at 320 g/ha", "setting": "Matricaria inodora [13]; 320 g/ha", "value": 100, "unit": "%"},
      {"measurement": "Polygonum convolvulus, herbicidal effect scored visually", "setting": "Polygonum convolvulus [14]; 320 g/ha", "value": 100, "unit": "%"},
      {"measurement": "pest or weed control at 320 g/ha", "setting": "Stellaria media [15]; 320 g/ha", "value": 100, "unit": "%"}
    ]}
  ]
}
